{
  "source": "patent US20220323429A1",
  "about": "“PIMAVANSERIN FOR TREATING NEURODEGENERATIVE DISEASES” (ACADIA Pharmaceuticals Inc., priority 2019, published 2022)",
  "key": {"[1]": {"assay": "In-use Stability Assay (HPLC) of pimavanserin 34 mg capsule contents in liquid/soft food vehicles", "format": "physicochemical", "conditions": "for Assay: ambient; for Time 0 (%) assay: time 0, average (n=6) accuracy/recovery", "experimental": "(§1) Analytical HPLC Stability Study experiments (Example 1) were performed on Agilent 1200 Series, or equivalent; Waters XBridge C18 column, 5 μm 150×4.6 mm; mobile phase: Solvent A: 50 mM ammonium bicarbonate, pH 8.0; Solvent B: acetonitrile/methanol, 80:20 (v/v); Flow rate: 1 mL/min; Inj. Volume 20 μL; Autosampler Temp. 5° C.; column temperature: 40° C., detection UV at 210 nm; sample concentration (as free base) assay: 0.068 mg/mL, impurity: 0.68 mg/mL; standard concentration (as free base) 0.068 mg/mL; PLOQ Std. 0.05% of 0.68 mg/mL; SST solution, 1% of 0.68 mg/mL (impurities A, C, D, E, F, and G); diluent for standards 80/20 (v/v) ethanol/water; diluent for samples, ethanol; run time 40 min; gradient method: 0 min mobile phase A (90%) and mobile phase B (10%) to 30 min mobile phase A (0%), and mobile phase B (100%); then 30.1 min to 40 min mobile phase A (90%), mobile phase B (10%).\nThe stability of pimavanserin for administration via a nasogastric (NG) tube was assessed by sprinkling the content of one pimavanserin 34 mg capsule in water, applesauce, vanilla Ensure, and non-pulp orange juice. Samples were tested at time 0, 2, 4, and 24 hours after storage at ambient conditions. Samples were prepared in triplicate and average (n=6) accuracy/recovery results from the assay method were used at time 0.\nFor each sample, one capsule was weighed, and the content of the capsule dropped into a 500 mL volumetric flask containing the amount of vehicle specified in Table 1. The empty capsule shell was weighed and discarded. The flasks were gently swirled to ensure the capsule contents were visually incorporated with the vehicle. The flasks were kept at ambient temperature for each time point 2, 4, and 24 hours. Time 0 samples were processed immediately.\nAt the specified time point, a stir bar and approximately 450 mL of diluent were added to the flask. The samples were stirred vigorously for 2 hours, and then left on the bench overnight. The following day the flasks were sonicated for approximately 15-30 minutes. The stir bar was removed and rinsed carefully with diluent into the flask, and then the flask was diluted to volume with diluent and mixed well by inversion. An aliquot of each solution was centrifuged for 5 minutes at 10000 rpm. The supernatant was transferred to a HPLC vial and injected for analysis."}, "[2]": {"assay": "Assay from diluted impurity samples (mass balance), in-use stability", "format": "physicochemical", "conditions": "for Assay (%) from diluted impurity sample: ambient; for Absolute Difference from Time 0 (%): diluted impurity sample", "experimental": "as §1\nFor each sample, one capsule was weighed, and the content of each capsule was dropped into a 50 mL volumetric flask and the empty capsule shell was weighed and discarded. The specified amount of each vehicle was added as specified in Table 3, below.\nThe flasks were gently swirled to ensure the capsule contents were visually incorporated with the vehicle. The flasks were kept on the bench at ambient temperature for each time point: 2, 4, and 24 hours. Time 0 samples were processed immediately. At the specified time point a stir bar and approximately 45 mL of diluent were added to the flask. The solution was stirred vigorously for 2 hours, and the flask was left on the bench overnight. The next day the flasks were sonicated for approximately 30 minutes. The stir bar was removed and rinsed carefully with diluent into the flask, and the flask was diluted to volume with diluent and mixed well by inversion. An aliquot of each solution was centrifuged for 5 minutes at 10000 rpm. The supernatant was transferred to a HPLC vial, and injected for analysis.\nSamples were prepared by transferring the stock volume using a volumetric pipet into a 20 mL volumetric flask, diluted to volume with diluent, and mixed well by inversion. An aliquot of each solution was centrifuged for 5 minutes at 10000 rpm. The supernatant was transferred to a HPLC vial and injected for analysis."}},
  "data": [
    {"smiles": "CC(C)COc1ccc(CNC(=O)N(Cc2ccc(F)cc2)C2CCN(C)CC2)cc1", "note": "[Pimavanserin, N-(4-Fluorophenylmethyl)-N-(1-methylpiperidin-4-yl)-N′-(4-(2-methylpropyloxy)phenylmethyl)carbamide]", "values": [
      {"measurement": "Assay", "setting": "[1]; 34 mg capsule in Ensure 60 mL, T = 2 h", "value": 100.3, "unit": "%"},
      {"measurement": "Assay", "setting": "[1]; 34 mg capsule in Ensure 60 mL, T = 4 h", "value": 100.7, "unit": "%"},
      {"measurement": "Assay", "setting": "[1]; 34 mg capsule in Ensure 60 mL, T = 24 h", "value": 98.1, "unit": "%"},
      {"measurement": "Assay", "setting": "[1]; 34 mg capsule in applesauce 40 g, T = 2 h", "value": 99.9, "unit": "%"},
      {"measurement": "Assay", "setting": "[1]; 34 mg capsule in applesauce 40 g, T = 4 h", "value": 97.7, "unit": "%"},
      {"measurement": "Assay", "setting": "[1]; 34 mg capsule in applesauce 40 g, T = 24 h", "value": 96.3, "unit": "%"},
      {"measurement": "Assay", "setting": "[1]; 34 mg capsule in non-pulp orange juice 60 mL, T = 2 h", "value": 99.2, "unit": "%"},
      {"measurement": "Assay", "setting": "[1]; 34 mg capsule in non-pulp orange juice 60 mL, T = 4 h", "value": 98.0, "unit": "%"},
      {"measurement": "Assay", "setting": "[1]; 34 mg capsule in non-pulp orange juice 60 mL, T = 24 h", "value": 98.3, "unit": "%"},
      {"measurement": "Assay", "setting": "[1]; 34 mg capsule in water 40 mL, T = 2 h", "value": 97.7, "unit": "%"},
      {"measurement": "Assay", "setting": "[1]; 34 mg capsule in water 40 mL, T = 4 h", "value": 95.6, "unit": "%"},
      {"measurement": "Assay", "setting": "[1]; 34 mg capsule in water 40 mL, T = 24 h", "value": 99.3, "unit": "%"},
      {"measurement": "Absolute Difference from Time 0", "setting": "[1]; Ensure, T = 2 h", "value": 0.3, "unit": "%"},
      {"measurement": "Absolute Difference from Time 0", "setting": "[1]; Ensure, T = 4 h", "value": 0.7, "unit": "%"},
      {"measurement": "Absolute Difference from Time 0", "setting": "[1]; Ensure, T = 24 h", "value": 1.9, "unit": "%"},
      {"measurement": "Absolute Difference from Time 0", "setting": "[1]; applesauce, T = 2 h", "value": 2.0, "unit": "%"},
      {"measurement": "Absolute Difference from Time 0", "setting": "[1]; applesauce, T = 4 h", "value": 4.2, "unit": "%"},
      {"measurement": "Absolute Difference from Time 0", "setting": "[1]; applesauce, T = 24 h", "value": 5.6, "unit": "%"},
      {"measurement": "Time 0 (%) assay", "setting": "[1]; applesauce", "value": 101.9, "unit": "%"},
      {"measurement": "Assay values difference from time 0", "setting": "[1]; individual capsules, up to 24 hours, all vehicles", "value": "≤ 5", "unit": "%"},
      {"measurement": "Absolute Difference from Time 0", "setting": "[1]; orange juice, T = 2 h", "value": 1.1, "unit": "%"},
      {"measurement": "Absolute Difference from Time 0", "setting": "[1]; orange juice, T = 4 h", "value": 2.3, "unit": "%"},
      {"measurement": "Absolute Difference from Time 0", "setting": "[1]; orange juice, T = 24 h", "value": 2.0, "unit": "%"},
      {"measurement": "Time 0 (%) assay", "setting": "[1]; orange juice", "value": 100.3, "unit": "%"},
      {"measurement": "stability in all vehicles", "setting": "[1]; over 24 hours at ambient room temperature", "value": "acceptable"},
      {"measurement": "Time 0 (%) assay", "setting": "[1]; vanilla Ensure", "value": 100.0, "unit": "%"},
      {"measurement": "Absolute Difference from Time 0", "setting": "[1]; water, T = 2 h", "value": 1.2, "unit": "%"},
      {"measurement": "Absolute Difference from Time 0", "setting": "[1]; water, T = 4 h", "value": 3.3, "unit": "%"},
      {"measurement": "Absolute Difference from Time 0", "setting": "[1]; water, T = 24 h", "value": 0.4, "unit": "%"},
      {"measurement": "Time 0 (%) assay", "setting": "[1]; water", "value": 98.9, "unit": "%"},
      {"measurement": "Assay (%) from diluted impurity sample", "setting": "[2]; Ensure 5 mL, T = 0", "value": 97.1, "unit": "%"},
      {"measurement": "Assay (%) from diluted impurity sample", "setting": "[2]; Ensure 5 mL, T = 2 h", "value": 94.6, "unit": "%"},
      {"measurement": "Assay (%) from diluted impurity sample", "setting": "[2]; Ensure 5 mL, T = 4 h", "value": 97.9, "unit": "%"},
      {"measurement": "Assay (%) from diluted impurity sample", "setting": "[2]; Ensure 5 mL, T = 24 h", "value": 97.3, "unit": "%"},
      {"measurement": "Absolute Difference from Time 0 (%)", "setting": "[2]; Ensure, T = 0", "value": 2.9, "unit": "%"},
      {"measurement": "Absolute Difference from Time 0 (%)", "setting": "[2]; Ensure, T = 2 h", "value": 5.4, "unit": "%"},
      {"measurement": "Absolute Difference from Time 0 (%)", "setting": "[2]; Ensure, T = 4 h", "value": 2.1, "unit": "%"},
      {"measurement": "Absolute Difference from Time 0 (%)", "setting": "[2]; Ensure, T = 24 h", "value": 2.7, "unit": "%"},
      {"measurement": "Assay (%) from diluted impurity sample", "setting": "[2]; applesauce 5 g, T = 0", "value": 97.5, "unit": "%"},
      {"measurement": "Assay (%) from diluted impurity sample", "setting": "[2]; applesauce 5 g, T = 2 h", "value": 99.4, "unit": "%"},
      {"measurement": "Assay (%) from diluted impurity sample", "setting": "[2]; applesauce 5 g, T = 4 h", "value": 104.1, "unit": "%"},
      {"measurement": "Assay (%) from diluted impurity sample", "setting": "[2]; applesauce 5 g, T = 24 h", "value": 99.5, "unit": "%"},
      {"measurement": "Absolute Difference from Time 0 (%)", "setting": "[2]; applesauce, T = 0", "value": 4.4, "unit": "%"},
      {"measurement": "Absolute Difference from Time 0 (%)", "setting": "[2]; applesauce, T = 2 h", "value": 2.5, "unit": "%"},
      {"measurement": "Absolute Difference from Time 0 (%)", "setting": "[2]; applesauce, T = 4 h", "value": 2.2, "unit": "%"},
      {"measurement": "Absolute Difference from Time 0 (%)", "setting": "[2]; applesauce, T = 24 h", "value": 2.4, "unit": "%"},
      {"measurement": "assay results difference from time 0", "setting": "[2]; diluted impurity samples, all vehicles and times", "value": "≤ 5", "unit": "%"},
      {"measurement": "Assay (%) from diluted impurity sample", "setting": "[2]; orange juice 5 mL, T = 0", "value": 97.7, "unit": "%"},
      {"measurement": "Assay (%) from diluted impurity sample", "setting": "[2]; orange juice 5 mL, T = 2 h", "value": 97.5, "unit": "%"},
      {"measurement": "Assay (%) from diluted impurity sample", "setting": "[2]; orange juice 5 mL, T = 4 h", "value": 96.4, "unit": "%"},
      {"measurement": "Assay (%) from diluted impurity sample", "setting": "[2]; orange juice 5 mL, T = 24 h", "value": 99.2, "unit": "%"},
      {"measurement": "Absolute Difference from Time 0 (%)", "setting": "[2]; orange juice, T = 0", "value": 2.6, "unit": "%"},
      {"measurement": "Absolute Difference from Time 0 (%)", "setting": "[2]; orange juice, T = 2 h", "value": 2.8, "unit": "%"},
      {"measurement": "Absolute Difference from Time 0 (%)", "setting": "[2]; orange juice, T = 4 h", "value": 3.9, "unit": "%"},
      {"measurement": "Absolute Difference from Time 0 (%)", "setting": "[2]; orange juice, T = 24 h", "value": 1.1, "unit": "%"},
      {"measurement": "Assay (%) from diluted impurity sample", "setting": "[2]; water 5 mL, T = 0", "value": 95.6, "unit": "%"},
      {"measurement": "Assay (%) from diluted impurity sample", "setting": "[2]; water 5 mL, T = 2 h", "value": 98.2, "unit": "%"},
      {"measurement": "Assay (%) from diluted impurity sample", "setting": "[2]; water 5 mL, T = 4 h", "value": 97.1, "unit": "%"},
      {"measurement": "Assay (%) from diluted impurity sample", "setting": "[2]; water 5 mL, T = 24 h", "value": 97.5, "unit": "%"},
      {"measurement": "Absolute Difference from Time 0 (%)", "setting": "[2]; water, T = 0", "value": 3.3, "unit": "%"},
      {"measurement": "Absolute Difference from Time 0 (%)", "setting": "[2]; water, T = 2 h", "value": 0.7, "unit": "%"},
      {"measurement": "Absolute Difference from Time 0 (%)", "setting": "[2]; water, T = 4 h", "value": 1.8, "unit": "%"},
      {"measurement": "Absolute Difference from Time 0 (%)", "setting": "[2]; water, T = 24 h", "value": 1.4, "unit": "%"}
    ]}
  ]
}
